Test results as given in patent US20040063716A1, “Cholesterol biosynthesis inhibitors containing as the active ingredient tricyclic spiro compounds” (priority 2000, published 2004).
pIC50: −log10 of the molar value.

Each compound was assayed against T1, human FXa (Homo sapiens, UniProt P00742) (assay: Measurement of human FXa inhibitory action (chromogenic substrate S-2222)). Conditions: human FXa 0.019 U/ml, S-2222 0.4 mM, 37° C., pH 7.5.
T1 construct: purchased Enzyme Research Laboratories, Inc
Type: biochemical
Protocol: In vitro FXa inhibitory activity is measured in accordance with the method of Kettner et al. (Journal of Biological Chemistry, vol. 265, pages 18289 to 18297, 1990). To be more specific, human FXa (product of Enzyme Research Laboratories, Inc., 0.019 U/ml) is mixed with a test compound diluted with dimethylsulfoxide (DMSO) at various concentrations and a synthetic substrate S-2222 (Chromogenix AB, 0.4 mM). The mixtures are incubated at 37° C. in Tris-hydrochloric acid buffer (pH 7.5) while the absorbance at 405 nm is measured continuously. To calculate the FXa inhibitory activity of the test compound, the initial reaction velocity is compared with the value for a control containing no test compound. It should be noted that the FXa inhibitory activity of the test compound is generally indicated as IC50.

T1 sequence (P00742 235-488 limits assumed): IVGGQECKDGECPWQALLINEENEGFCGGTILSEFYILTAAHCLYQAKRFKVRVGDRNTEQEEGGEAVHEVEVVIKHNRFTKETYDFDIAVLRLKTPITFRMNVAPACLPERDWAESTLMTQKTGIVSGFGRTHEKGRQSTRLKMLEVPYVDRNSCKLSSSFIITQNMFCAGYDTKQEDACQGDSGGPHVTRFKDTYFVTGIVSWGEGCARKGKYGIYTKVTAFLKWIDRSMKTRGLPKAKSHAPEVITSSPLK
T1 sequence (P00742 41-179 partner limits assumed): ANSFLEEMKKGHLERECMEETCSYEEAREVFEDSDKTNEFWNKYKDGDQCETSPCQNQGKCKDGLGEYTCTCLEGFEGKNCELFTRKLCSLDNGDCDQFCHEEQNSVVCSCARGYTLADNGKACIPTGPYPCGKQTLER

**Q.** With O=C1CN(S(=O)(=O)c2ccc3cc(Cl)ccc3c2)CC2(CN3CCOCC3)OC3(CCN(c4ccncc4)CC3)CN12 (stereo not shown) [Example 61, 1,4-Diaza-4-(6-chloronaphthalen-2-ylsulfonyl)-6-(morpholinomethyl)-7-oxa-1′-(4-pyridyl)spiro[bicyclo[4.3.0]nonane-8,4′-piperidin]-2-one] as the compound, how does the pIC50 read?
**A.** 8.55

**Q.** With CCOC(=O)NCC12CN(S(=O)(=O)c3ccc4cc(Cl)ccc4c3)CC(=O)N1CC1(CCN(c3ccncc3)CC1)O2 (stereo not shown) [Example 59, 1,4-Diaza-4-(6-chloronaphthalen-2-ylsulfonyl)-6-(ethoxycarbonylaminomethyl)-7-oxa-1′-(4-pyridyl)spiro[bicyclo[4.3.0]nonane-8,4′-piperidin]-2-one] as the compound, how does the pIC50 read?
**A.** 8.47

**Q.** How did the pIC50 turn out when O=C1CN(S(=O)(=O)c2ccc3cc(Cl)ccc3c2)CC2(C(=O)O)OC3(CCN(c4ccncc4)CC3)CN12 (stereo not shown) [Example 50, Ammonium 1,4-Diaza-4-(6-chloronaphthalen-2-ylsulfonyl)-7-oxa-2-oxo-1′-(4-pyridyl)spiro[bicyclo[4.3.0]nonane-8,4′-piperidine]-6-carboxylate] was run?
**A.** 8.72

**Q.** With COCC12CN(S(=O)(=O)C=Cc3ccc(Cl)s3)CC(=O)N1CC1(CCN(c3ccncc3)CC1)O2 (stereo not shown) [Example 684, 1,4-Diaza-4-[2-(5-chlorothiophen-2-yl)ethenesulfonyl]-6-(methoxymethyl)-7-oxa-1′-(4-pyridyl)spiro[bicyclo[4.3.0]nonane-8,4′-piperidin]-2-one] as the compound, how does the pIC50 read?
**A.** 8.74

**Q.** How did the pIC50 turn out when CCOC(=O)C12CN(S(=O)(=O)c3ccc4cc(Cl)ccc4c3)CC(=O)N1CC1(CCN(c3ccncc3)CC1)O2 (stereo not shown) [Example 25, 1,4-Diaza-4-(6-chloronaphthalen-2-ylsulfonyl)-6-(ethoxycarbonyl)-7-oxa-1′-(4-pyridyl)spiro[bicyclo[4.3.0]nonane-8,4′-piperidin]-2-one] was run?
**A.** 8.82

**Q.** With COCC12CN(S(=O)(=O)c3ccc4nc(Cl)ccc4c3)CC(=O)N1CC1(CCN(c3ccncc3)CC1)O2 (stereo not shown) [Example 770, 1,4-Diaza-4-(2-chloroquinolin-6-ylsulfonyl)-6-(methoxymethyl)-7-oxa-1′-(4-pyridyl)spiro[bicyclo[4.3.0]nonane-8,4′-piperidin]-2-one] as the compound, how does the pIC50 read?
**A.** 8.74

**Q.** O=C1CN(S(=O)(=O)c2ccc3cc(Cl)ccc3c2)CC2OC3(CCN(c4ccncn4)CC3)CN12 (stereo not shown) [Example 10, 1,4-Diaza-4-(6-chloronaphthalen-2-ylsulfonyl)-7-oxa-1′-(4-pyrimidinyl)spiro[bicyclo[4.3.0]nonane-8,4′-piperidin]-2-one] was tested. Which pIC50 did it give?
**A.** 8.27

**Q.** With O=C1CN(S(=O)(=O)c2ccc3nc(Cl)ccc3c2)CC2OC3(CCN(c4ccncc4)CC3)CN12 (stereo not shown) [Example 760, 1,4-Diaza-4-(2-chloroquinolin-6-ylsulfonyl)-7-oxa-1′-(4-pyridyl)spiro[bicyclo[4.3.0]nonane-8,4′-piperidin]-2-one] as the compound, how does the pIC50 read?
**A.** 8.23

**Q.** How did the pIC50 turn out when O=C1CN(S(=O)(=O)C=Cc2ccc(Cl)s2)CC2NC3(CCN(c4ccncc4)CC3)CN12 (stereo not shown) [Example 628, 1,4,7-Triaza-4-[2-(5-chlorothiophen-2-yl)ethenesulfonyl]-1′-(4-pyridyl)spiro[bicyclo[4.3.0]nonane-8,4′-piperidin]-2-one] was run?
**A.** 8.28

**Q.** How did the pIC50 turn out when COCC12CN(S(=O)(=O)C=Cc3ccc(Cl)s3)CC(=O)N1CC1(CCN(c3ccncc3)CC1)N2 (stereo not shown) [Example 712, 1,4,7-Triaza-4-[2-(5-chlorothiophen-2-yl)ethenesulfonyl]-6-(methoxymethyl)-1′-(4-pyridyl)spiro[bicyclo[4.3.0]nonane-8,4′-piperidin]-2-one] was run?
**A.** 8.74

What follows are compounds tested on human plasma (assay: Measurement of intrinsic coagulation time (APTT) in vitro). Conditions: not given.
Type: biochemical
Protocol: Activated partial thromboplastin time (APTT) is measured in the presence of the test compounds diluted at various concentrations. A test compound diluted with DMSO at various concentrations is mixed with human plasma and APTT reagent. The mixture is incubated at 37° C. for 2 minutes; calcium chloride (25 mM) is added to the mixture; and the coagulation time is thereafter measured. It should be noted that the anticoagulant activity of the test compound is described in terms of the concentration required to double the coagulation time for the case where no test compound is added.

**Q.** For NCC12CN(S(=O)(=O)c3ccc4cc(Cl)ccc4c3)CC(=O)N1CC1(CCN(c3ccncc3)CC1)O2 (stereo not shown) [Example 58, 6-(Aminomethyl)-1,4-diaza-4-(6-chloronaphthalen-2-ylsulfonyl)-7-oxa-1′-(4-pyridyl)spiro[bicyclo[4.3.0]nonane-8,4′-piperidin]-2-one], which “Concentration required to double coagulation time” value (shortened to “Concentration required”) is on record?
**A.** 0.18 µM

**Q.** How did the “Concentration required” value turn out when COCC12CN(S(=O)(=O)c3cc4ccc(Cl)cc4s3)CC(=O)N1CC1(CCN(c3ccncc3)CC1)O2 (stereo not shown) [Example 399, 1,4-Diaza-4-(6-chlorobenzo[b]thiophen-2-ylsulfonyl)-6-(methoxymethyl)-7-oxa-1′-(4-pyridyl)spiro[bicyclo[4.3.0]nonane-8,4′-piperidin]-2-one] was run?
**A.** 0.18 µM

**Q.** For COCC12CN(S(=O)(=O)c3cc4ccc(Cl)cc4s3)CC(=O)N1CC1(CCN(c3ccncc3)CC1)N2 (stereo not shown) [Example 461, 1,4,7-Triaza-4-(6-chlorobenzo[b]thiophen-2-ylsulfonyl)-6-(methoxymethyl)-1′-(4-pyridyl)spiro[bicyclo[4.3.0]nonane-8,4′-piperidin]-2-one], which “Concentration required” value is on record?
**A.** 0.16 µM

**Q.** COCC12CN(S(=O)(=O)c3ccc4ccccc4c3)CC(=O)N1CC1(CCN(c3ccncc3)CC1)O2 (stereo not shown) [Example 6, 1,4-Diaza-6-(methoxymethyl)-4-(2-naphthalenesulfonyl)-7-oxa-1′-(4-pyridyl)spiro[bicyclo[4.3.0]nonane-8,4′-piperidin]-2-one] was tested. Which “Concentration required” value did it give?
**A.** 0.99 µM

**Q.** For O=C1CN(S(=O)(=O)C=Cc2ccc(Cl)s2)CC2OC3(CCN(c4ccncc4)CC3)CN12 (stereo not shown) [Example 600, 1,4-Diaza-4-[2-(5-chlorothiophen-2-yl)ethenesulfonyl]-7-oxa-1′-(4-pyridyl)spiro[bicyclo[4.3.0]nonane-8,4′-piperidin]-2-one], which “Concentration required” value is on record?
**A.** 0.22 µM

**Q.** For COCCOC(=O)C12CN(S(=O)(=O)c3ccc4cc(Cl)ccc4c3)CC(=O)N1CC1(CCN(c3ccncc3)CC1)O2 (single isomer, unassigned; (-)) [Example 42, (−)-1,4-Diaza-4-(6-chloronaphthalen-2-ylsulfonyl)-6-(2-methoxyethoxycarbonyl)-7-oxa-1′-(4-pyridyl)spiro[bicyclo[4.3.0]nonane-8,4′-piperidin]-2-one], which “Concentration required” value is on record?
**A.** 0.20 µM

**Q.** COCC12CN(S(=O)(=O)c3cc4cc(Cl)ccc4o3)CC(=O)N1CC1(CCN(c3ccncc3)CC1)N2 (stereo not shown) [Example 471, 1,4,7-Triaza-4-(5-chlorobenzo[b]furan-2-ylsulfonyl)-6-(methoxymethyl)-1′-(4-pyridyl)spiro[bicyclo[4.3.0]nonane-8,4′-piperidin]-2-one] was tested. Which “Concentration required” value did it give?
**A.** 0.27 µM

**Q.** How did the “Concentration required” value turn out when O=C1CN(S(=O)(=O)c2cc3ccc(Cl)cc3s2)CC2NC3(CCN(c4ccncc4)CC3)CN12 (stereo not shown) [Example 275, 1,4,7-Triaza-4-(6-chlorobenzo[b]thiophen-2-ylsulfonyl)-1′-(4-pyridyl)spiro[bicyclo[4.3.0]nonane-8,4′-piperidin]-2-one] was run?
**A.** 0.17 µM

**Q.** For COCC12CN(S(=O)(=O)c3cc4cc(Cl)ccc4o3)CC(=O)N1CC1(CCN(c3ccncc3)CC1)N2C (stereo not shown) [Example 533, 1,4,7-Triaza-4-(5-chlorobenzo[b]furan-2-ylsulfonyl)-6-(methoxymethyl)-7-methyl-1′-(4-pyridyl)spiro[bicyclo[4.3.0]nonane-8,4′-piperidin]-2-one], which “Concentration required” value is on record?
**A.** 0.35 µM

**Q.** COCC12CN(S(=O)(=O)C=Cc3ccc(Cl)s3)CC(=O)N1CC1(CCN(c3ccncc3)CC1)N2C (stereo not shown) [Example 740, 1,4,7-Triaza-4-[2-(5-chlorothiophen-2-yl)ethenesulfonyl]-6-(methoxymethyl)-7-methyl-1′-(4-pyridyl)spiro[bicyclo[4.3.0]nonane-8,4′-piperidin]-2-one] was tested. Which “Concentration required” value did it give?
**A.** 0.18 µM

**Q.** With O=C1CN(S(=O)(=O)c2ccc3cc(Cl)ccc3c2)CC2OC3(CCN(c4ccncc4)CC3)CN12 (stereo not shown) [Example 9, 1,4-Diaza-4-(6-chloronaphthalen-2-ylsulfonyl)-7-oxa-1′-(4-pyridyl)spiro[bicyclo[4.3.0]nonane-8,4′-piperidin]-2-one] as the compound, how does the “Concentration required” value read?
**A.** 0.29 µM

**Q.** How did the “Concentration required” value turn out when COCC12CN(S(=O)(=O)C3=Cc4ccc(Cl)cc4OC3)CC(=O)N1CC1(CCN(c3ccncc3)CC1)O2 (stereo not shown) [Example 388, 1,4-Diaza-4-(7-chloro-2H-benzopyran-3-sulfonyl)-6-(methoxymethyl)-7-oxa-1′-(4-pyridyl)spiro[bicyclo[4.3.0]nonane-8,4′-piperidin]-2-one] was run?
**A.** 0.22 µM

**Q.** Which “Concentration required” value does the source give for CC(C)OC(=O)C12CN(S(=O)(=O)c3ccc4cc(Cl)ccc4c3)CC(=O)N1CC1(CCN(c3ccncc3)CC1)O2 (stereo not shown) [Example 29, 1,4-Diaza-4-(6-chloronaphthalen-2-ylsulfonyl)-6-(isopropoxycarbonyl)-7-oxa-1′-(4-pyridyl)spiro[bicyclo[4.3.0]nonane-8,4′-piperidin]-2-one] here?
**A.** 0.90 µM

**Q.** Which “Concentration required” value does the source give for COCC12CN(S(=O)(=O)c3ccc4cc(Cl)ccc4c3)CC(=O)N1CC1(CCN(c3cc[n+](C)cc3)CC1)O2.Cc1ccc(S(=O)(=O)[O-])cc1 (stereo not shown) [Example 23, 4-[1,4-Diaza-4-(6-chloronaphthalen-2-ylsulfonyl)-6-(methoxymethyl)-7-oxa-2-oxospiro[bicyclo[4.3.0]nonane-8,4′-piperidin-1′-yl]]-1-methylpyridinium p-Toluenesulfonate] here?
**A.** 0.62 µM

**Q.** CC12CN(S(=O)(=O)c3ccc4cc(Cl)ccc4c3)CC(=O)N1CC1(CCN(c3ccncc3)CC1)O2 (stereo not shown) [Example 69, 1,4-Diaza-4-(6-chloronaphthalen-2-ylsulfonyl)-6-methyl-7-oxa-1′-(4-pyridyl)spiro[bicyclo[4.3.0]nonane-8,4′-piperidin]-2-one] was tested. Which “Concentration required” value did it give?
**A.** 0.36 µM
